# Test results published in article PMC5958115, “A novel small molecule chaperone of rod opsin and its potential therapy for retinal degeneration” (Nature Communications, 2018).
# Legend:
# [1] = Quantification of YC-001 in mouse eye by HPLC; type: in vivo, C57BL/6 mouse
# Method: To measure the amount of YC-001 in the eye following systemic delivery, YC-001 was administered to C57BL/6 mice by i.p. injection at a dose of 200 mg kg^−1 bw. Mice then were euthanized at 30 min, 3 h and 24 h after these injections, and their eyes were removed for analysis. Eyes from two mice under the same treatment were homogenized on ice in 1 mL of PBS:methanol (1:1 ratio). Four-mL of hexanes were then added to the homogenized sample, and the mixture was vortexed for 15 s. The mixture was centrifuged at 3,220×g for 15 min at 4 °C to separate the hexanes from the aqueous layer. From the top hexane layer, 3.5 mL was transferred to a glass vial. This sample was then dried in a Savant speed vacuum concentrator (Thermofisher, Waltham, Massachusetts, USA) and dissolved in 300 µL methanol. One hundred-µL of dissolved sample were injected into an HPLC system connected to an Agilent Sil column (5 μm, 4.6 × 250 mm; Agilent Technologies, Santa Clara, CA) for separation with 10% ethyl acetate in hexanes at a flow rate 1.4 mL min^−1. A chromatogram of absorption at 340 nm was then obtained. A YC-001 standard was subjected to the same procedures as the ocular samples and used to establish a retention time at 13.2 min. By comparing ocular samples to its standard curve of YC-001, the amount of YC-001 was then quantified in pmol per eye at different time points after its systemic administration. The identity of YC-001 in the peak fraction with a retention time of […] was confirmed by LC–MS using the same chromatography method as applied for HPLC.
# [2] = Metabolic stability in mouse liver microsomes; type: in vitro ADME; settings: 5 µM, NADPH, 37 °C
# Method: (§1) A standard metabolic stability assay was performed in the presence of mouse or human liver microsomes. YC-001 (5 µM) was incubated with the microsomes (0.125 mg mL^−1) resuspended in 0.2 mL of PBS buffer, pH 7.4 composed of 10 mM Na2HPO4, 1.8 mM KH2PO4, 137 mM NaCl, and 2.7 mM KCl. The enzymatic reaction to produce oxidized metabolites was initiated by addition of NADPH (1 mM). Samples were incubated at 37 °C for up to 240 min. Incubation without the cofactor was conducted in parallel to assess NADPH-independent clearance. The reactions were stopped with 0.2 mL of methanol followed by 0.3 mL chloroform. Residual YC-001 was extracted by vigorous shaking. To facilitate phase separation, the samples were spun down for 2 min, 15,000×g. The chloroform fraction was collected, dried down, and the extracted organic compounds were redissolved in 0.2 mL of methanol. To quantify YC-001, the samples were injected onto an Eclipse XDB-C18 column (4.6 × 150 mm, 5 µm) (Agilent Technologies) equilibrated with solvent composed of 30% acetonitrile in water (v/v), and 0.1% formic acid. YC-001 was eluted in a gradient of acetonitrile in water (30–100%) developed within 15 min at a flow rate of 1 mL min^−1, detected at 350 nm, and quantified by correlating peak areas with known quantities of an original synthetic standard. […]
# [3] = Metabolic stability in human liver microsomes; type: in vitro ADME; settings: 5 µM, NADPH, 37 °C
# Method: as §1
smiles,measurement,setting,value
O=C1OCC(c2ccc(Cl)s2)=C1c1cccs1 [YC-001],amount of YC-001 in eye,[1]; 0.5 h after i.p. 200 mg kg^−1 bw,About 70 pmol per eye
same,amount of YC-001 in eye,[1]; 3 h after i.p. 200 mg kg^−1 bw,280 pmol per eye
same,amount of YC-001 in eye,[1]; 24 h after i.p. 200 mg kg^−1 bw,undetectable
same,initial clearance in liver microsomes,[2],"even higher initial clearance compared to the fast clearance drug, verapamil"
same,initial clearance in liver microsomes,[3],"even higher initial clearance compared to the fast clearance drug, verapamil"
